In ChEMBL document CHEMBL3507680, “University of Dundee, Gates Library screen for HepG2 cell viability”:

Assay: Human HepG2 cell viability assay in 384 well format
Type: toxicity, cell-based
Design: dose 125 nL, time 70.5 hour; cytotoxicity at 70.5 h: concentration not given beside the values
Settings: HepG2 cells, read-out: Inhibition

Structure (SMILES)	cytotoxicity at 70.5 h
CC(C)CC(=O)N1CC(=O)N(CCc2ccccc2)CC(O)C1 (stereo not drawn)	24%
COc1ccnc(CNc2nc(C)nc3ccsc23)c1	3.18%
CC(C(=O)N1CCCC1)n1nc(-c2cccs2)cc(N)c1=O (stereo not drawn)	5.25%
Cc1nnc([C@H]2C[C@H]3OCC[C@H]3N(S(=O)(=O)C3CC3)C2)o1	5.23%
CC(C)N1CC[C@H]2[C@H](C[C@@H](Cn3cncn3)N2c2nccs2)C1	-6.46%
CC(C)N(C)S(=O)(=O)N(C)Cc1ccc2c(c1)OCO2	20.7%
COCCOC(=O)N1CCN2C[C@@H](CO)[C@H](c3ccccc3)[C@H]2C1	0.912%
Cc1occc(=O)c1OCc1noc(C(=O)NCC(C)C)n1	-16.8%
CC(C)CCN(C(=O)CCn1cc(S(N)(=O)=O)cn1)C1CC1	-1.68%
Cc1noc([C@]23COC[C@H]2CN(C(=O)COC2CCCC2)C3)n1	-5.12%
CCc1ccc(C(=O)O)cc1S(=O)(=O)N(C)c1cccc(C)c1	-7.54%
NC(=O)c1ccc2c(c1)nc1n2CCN(Cc2cccnc2)C1	-1.68%
NC(=O)CC1CCN(C(=O)NCCc2ccc(Cl)s2)CC1	-4.12%
CN(C)C[C@@H]1CCC[C@@H]2CN(c3nccc(C(F)(F)F)n3)C[C@@H]21	23.3%
Cc1nnc([C@]23COC[C@H]2CN(Cc2cccs2)C3)o1	27.6%
Cc1occc1CNC(=O)Nc1ccc2nc(N3CCOCC3)oc2c1	-9.42%
COc1c(CNCc2cnn(C)c2)c(C(C)C)nn1C	7.69%
CSc1cccc(NC(C)C(=O)Nc2nccs2)c1 (stereo not drawn)	6.07%
O=C(O)Cn1nc(C2CC2)c2c(-c3ccc(F)cc3)ccnc21	-10.6%
O=C(CC1CC1)N[C@@H]1CN(Cc2cccnc2)C[C@@H]2CCCO[C@@H]21	-4.07%
Cc1nc(C2CCCN(C(=O)CCn3ccccc3=O)C2)no1 (stereo not drawn)	-3.24%
COCC(=O)N1CCC2(CC1)CC(N1CCOCC1)c1ccc(C)cc12 (stereo not drawn)	0.692%
Fc1cccc(CN2CCO[C@H]3[C@@H](OCc4ccccn4)CC[C@@H]32)c1	-15.5%

Structure (SMILES)	cytotoxicity at 70.5 h
CCOCC1CN(C(=O)Cc2ccsc2)Cc2ccnn2C1 (stereo not drawn)	-6.83%
COc1ccc(COCC(O)CNC(=O)c2cccnc2)cc1 (stereo not drawn)	32.7%
CC[C@@H]1N(Cc2nccs2)CCC[C@]12CCC(=O)N2C	9.06%
COCCN1CCN(C(C(=O)O)c2ccc(SC)cc2)CC1 (stereo not drawn)	-5.21%
Cc1nc(C)n(CC2CN(Cc3ccccc3OC(C)C)CCO2)n1 (stereo not drawn)	-9.52%
Cc1nn(C)c(Oc2cccc(F)c2)c1NC(=O)C1CCOCC1	-14.1%
C[C@@H]1C[C@@H]2CCN(Cc3nccs3)C[C@H]2O1	-9.1%
O=C(c1ccc(F)cc1)N1C[C@@H]2CCN(c3cccnc3)C[C@@H]2C1	-11.2%
Cc1cc(O)cc(C2CCCN2C(=O)c2ccncc2)n1 (stereo not drawn)	-5.31%
OC(CN(Cc1ccccc1)Cc1cscn1)c1ccco1 (stereo not drawn)	-9.5%
CCOc1ccc(Oc2cc(CN)ccn2)cc1	-27.6%
c1cnnc(N2CCCC2CNCc2ccsc2)c1 (stereo not drawn)	-10.1%
CN(C)C(=O)Cc1nc(CN2CCCC2Cn2cccn2)cs1 (stereo not drawn)	-6.16%
CCOCCC(=O)N(C)c1ccc(F)c(Cl)c1	-7.99%
CCOCC(C)(C)NC(=O)Nc1cc(F)ccc1OC	-5.66%
O=C(O)c1cc2c(nc1O)CC(c1cccc(Cl)c1)CC2=O (stereo not drawn)	-2.93%
CC(=O)N1CCCN(C(=O)c2ccn(-c3cccc(Cl)c3)n2)CC1	-26.5%
COCCCN(C)c1nc(-c2ccncc2)nc(C)c1C	-5.34%
CCNC(=O)c1c2c(N3CCN(C)CC3)ncnc2n2ccccc12	2.84%
Cc1ccccc1CNC(=O)C1CCN(Cc2nccn2C)CC1	-0.376%
Cc1cnc(N2CC[C@@H]3CN(CCC(C)C)S(=O)(=O)[C@@H]3CC2)nc1	-1.61%
Cc1ccc(S(=O)(=O)Nc2ccc(N3CCSCC3)c(C(=O)O)c2)s1	-10.2%
c1ccc(CN2CCc3nnc(COc4ccccn4)n3CC2)nc1	13.9%

Structure (SMILES)	cytotoxicity at 70.5 h
CC(C)n1cc(C(=O)NCCN(C)C)c2n[nH]c(=O)c-2c1	1.2%
CC[C@H](C)[C@H](NC(=O)Cc1csc(-c2cccc(Cl)c2)n1)C(=O)O	-27.4%
Cc1nnc(CN2CCN(CCOc3ccccc3C#N)CC2)n1C	7.15%
Cc1ncsc1CN1C[C@H]2CC[C@@H]1CN(Cc1ccccc1)C2	30%
N#CCCN(c1ccccc1)S(=O)(=O)CC1CCCCO1 (stereo not drawn)	-9.85%
CCOc1cccc(CNc2ccccc2Cl)c1O	-4.02%
O=C(c1cnc(-c2noc3cc(N4CCCC4)ccc23)s1)N1CCCC1	-4.44%
Cc1nc(OCC(=O)N2CCCC2)cc(-n2cccn2)n1	-7.15%
CN(C)c1ccc(CNC2=NCCCN2)cc1	13.3%
COCCN1CCC1c1cc(NC2CCCC2)nc(C)n1 (stereo not drawn)	-5.31%
COc1c(CNCc2ccc(CS(C)(=O)=O)cc2)c(C)nn1C	26.4%
CN(C(=O)CN(Cc1cccc(O)c1)C1CCC(O)CC1)C1CC1 (stereo not drawn)	-6.65%
COCC(=O)N1CC(C(=O)NCC2CC2)C2(CCOCC2)C1 (stereo not drawn)	-3.19%
CN(C)c1cc(C2CCCN(C(=O)Cn3cc(Cl)cn3)C2)ccn1 (stereo not drawn)	-4.03%
Cc1ccc(NC2CCN(C(=O)CCCc3ccccn3)CC2)cc1	-8.59%
CCn1c(Cn2cccn2)nnc1C1CCN(Cc2ccc(C)o2)CC1	19.3%
CCN(CCCN1CCOCC1)C(=O)c1cnn(CC)c1	2.38%
CNC(=O)[C@H]1C[C@@H]2CN(S(=O)(=O)c3ccc(C)c(F)c3)C[C@@H]2N1C	-3.95%
O=C(NCCc1nncn1C1CC1)C1(Cc2ccccc2)CCC1	-1.53%
Cc1nnc(N2CCc3cncnc3C2)c(C#N)c1C	-4.76%
CCc1cnc(N2CC[C@@H]3CN(CCC(C)C)S(=O)(=O)[C@@H]3CC2)nc1	-4.3%
Cc1cc(C)n(-c2cncc(N3CCC(C(=O)N(C)C)CC3)n2)n1	11.2%
CC(C)N(C)Cc1cc(=O)n2c(n1)CN(C(=O)c1ccc[nH]1)CCC2	0.329%

Structure (SMILES)	cytotoxicity at 70.5 h
c1ccc(O[C@H]2CO[C@@]3(CCCN(Cc4nccs4)C3)C2)nc1	42.1%
CCCS(=O)(=O)NC(C)c1cccc(-n2cccn2)c1 (stereo not drawn)	-6.77%
Cc1nc(NCc2noc(C3CCCO3)n2)c2ccsc2n1 (stereo not drawn)	26.9%
CC(NC(=O)N1CCNC(=O)CC1)c1c(F)cccc1Cl (stereo not drawn)	-4.44%
Cn1nccc1CNC(=O)CCn1nc(C(F)(F)F)cc1C1CC1	-4.88%
CC(O)CNc1nc(-c2cccnc2)nc2c1CCC2 (stereo not drawn)	0.874%
COc1ccccc1C(=O)N1CCN(C(=O)Cc2ccccn2)CC1	-6.85%
O=C(NCc1ccccc1)N1CCC2(CC(=O)N(c3ccsc3)C2)C1 (stereo not drawn)	-2.89%
CCn1ccnc1CN(C)c1cc(C2CC2)ncn1	-5.12%
NC[C@H]1CC[C@H](C(NC(=O)CC2CCCCC2)c2ccccn2)CC1 (stereo partly drawn)	-6.94%
CC(NC(=O)N1CCc2sccc2C1)c1nncn1C (stereo not drawn)	-5.43%
Nc1cc(-c2cccc3ccnn23)ccn1	-2.42%
CCC(SC)C(=O)N1CCC(n2cccn2)CC1 (stereo not drawn)	-6.08%
Cc1nnc2n1CCN(C(=O)c1cc(Cl)c(Br)[nH]1)C2	-2.93%
Cc1cnn(CC2CCCCN2C(=O)c2ccc3[nH]nnc3c2)c1 (stereo not drawn)	-11.6%
O=C(NCCc1cccs1)NC1CCN(c2ncccn2)CC1	-6.98%
Cc1ccsc1CNc1ccc(C(=O)N2CCNC(=O)C2)cn1	-2.58%
N#Cc1ccnc(N2CCN(CC(O)c3ccccc3Cl)CC2)c1 (stereo not drawn)	-0.0236%
NC(=O)C1CCN(C(=O)NCCNc2ccccn2)CC1	-1.19%
Cc1nc(C)n(CC2CCCCN2c2ncnc3ccsc23)n1 (stereo not drawn)	-11.9%
COCCCC1CCCCN1Cc1cn2cc(C)ccc2n1 (stereo not drawn)	-25.8%
c1ccc(CCN2CCN(c3ccc4nncn4n3)CC2)nc1	-6.96%
NC(=O)C1CCCN(Cc2c(-c3ccco3)[nH]c3ncccc23)C1 (stereo not drawn)	-10.6%

Structure (SMILES)	cytotoxicity at 70.5 h
COc1ccc(CNC(=O)Cn2ccc3sccc3c2=O)cc1	12.8%
CCOCC(=O)N1C[C@@H]2CC[C@H](C1)N(Cc1ccccn1)C2=O	-9.63%
Cc1ccccc1OCCCC(=O)N1CCCC(n2cncn2)C1 (stereo not drawn)	13%
Cc1ccc([C@@H]2CN(C(=O)c3cc[nH]c3)C[C@H]2NC(=O)C2CC2)cc1	-10.7%
COCC(=O)Nc1cnc(N2CCCC2)nc1	-0.927%
CCC(C(=O)N(C)C)n1ccc2ncccc2c1=O (stereo not drawn)	-13.2%
CN(C(=O)CC1=CCCCC1)C1CCCN(CCc2ccccc2)C1 (stereo not drawn)	-5.66%
COCCC(C)NC(=O)Nc1ccc(N2CCOC2=O)c(OC)c1 (stereo not drawn)	-11%
O=C1COc2ccc(C(=O)NS(=O)(=O)c3ccccc3Cl)cc2N1	-14.9%
Cc1ccc(N2CCCN(C(=O)C3(C#N)CCCCC3)CC2)nn1	-0.352%
O=C(Cc1cccs1)N1CCC2(CC1)COCCN2CC1CC1	-8.87%
O=c1[nH]c2ncccc2n1C1CCCC1	-0.61%
Cc1cccc(C(C)CNS(=O)(=O)CCCC#N)c1 (stereo not drawn)	-8.11%
Cc1ncc(C(=O)N2CC[C@@]3(O)CCN(C4CCCCC4)C[C@H]3C2)cn1	-7.37%
CC(C)c1nc(CN2CCc3onc(-c4cccc(F)c4)c3C2)no1	-8.91%
Cc1cnn(CC(=O)N2CCC3(CCC(=O)N(CC(C)O)C3)CC2)c1 (stereo not drawn)	-5.26%
CCCN1CCCn2c(nc(CNC(=O)c3nccn3C)cc2=O)C1	-9.48%
CCN(CCn1cccn1)Cc1nc(-c2cccc(C)c2)oc1C	-5.06%
CC(C)(C)c1oc(C(N)=O)cc1CN1CCCCC(N)C1 (stereo not drawn)	-7.89%
COc1ccc(CNCC2CN(C3CC3)CCO2)cc1F (stereo not drawn)	-8.08%
CCN1C(=O)C(C)(C)c2cc(NC(=O)c3ccn(CC)n3)ccc21	-19.5%
